Data reported in patent US20260053811A1, “METHODS OF TREATING HYPERTENSION IN OBESE SUBJECTS” (Mineralys Therapeutics, Inc., priority 2022, published 2026).

Tested on: hypertensive subjects
Assay: Seated automated office blood pressure (AOBP) in randomized, placebo-controlled, dose-ranging study
Assay type: in vivo, human
Details: Part 1
Description: A randomized, double-blinded, placebo-controlled, dose-ranging, multicenter study was conducted to evaluate the effect of orally administered Compound A HBr on blood pressure for the treatment of hypertension in male and female subjects ≥18 years of age.
The study consists of two parts. For enrollment into Part 1 of the study, a subject's value of plasma renin activity (PRA) must be ≤1 ng/mL/h based on morning measurement. If the value of PRA >1 ng/mL/h based on morning measurement, then subjects may be eligible to enter Part 2 of the study.
For Part 1, 163 enrolled subjects ≥18 years of age were randomized into 6 equal treatment groups (1:1:1:1:1:1) to 12.5 mg BID, 25 mg BID, 12.5 mg QD, 50 mg QD, 100 mg QD, or placebo. After a review of interim clinical data, the 2 lowest dose levels (12.5 mg QD and 12.5 mg BID) were stopped for future randomization due to a lack of consistent meaningful reduction of blood pressure, but the patients randomized to that point remained in the study through completion. Thus, after the review of interim clinical data, subjects were randomized into 4 equal treatment groups (1:1:1:1) to 25 mg BID, 50 mg QD, 100 mg QD, or placebo.
For Part 2, 36 enrolled subjects ≥18 years of age were randomized (5:1) to either 100 mg QD Compound A HBr or placebo such that the Compound A HBr treatment group consisted of approximately 30 subjects and the placebo treatment group will consist of approximately 6 subjects.
Subjects orally administered the assigned study drug (Compound A HBr or placebo) according to the assigned dosing regimen for 8 weeks beginning on Study Day 1. All subjects in Part 1 (regardless of dosing group) received BID dosing to preserve the integrity of the blind; active drug is administered as the morning dose for all QD dose groups. Subjects returned to the research facility or were seen by the clinical investigator or approved home health care professional at the end of Study Weeks 1, 2, 3, 4, 5, 6, 7, and 8 (±2 days) for protocol-defined efficacy and safety assessments and procedures, assessment of adverse events (AEs), and confirmation of compliance with study drug usage. Subjects also completed a telephone visit and blood pressure (BP) check at home approximately 3 days post last dose of study drug. Subjects attended up to 14 full clinic visits, including a pre-Screening visit, a Screening/start of Placebo Run-in visit, a second visit during Placebo Run-in, a clinic visit to initiate the ABPM procedure, a Randomization visit, 8 weekly visits during double-blind treatment, and an end-of-study visit scheduled 4 weeks after the last study treatment for final efficacy and safety assessments.
An automated oscillometric sphygmomanometer device was used to measure the subjects' systolic and diastolic blood pressure in office after approximately 5 minutes of rest in the seated position.
The primary endpoint is the change in office-measured (mean of last 2 of 5 unattended measurements using an automated oscillometric sphygmomanometer device after approximately 5 minutes of rest in the seated position) systolic blood pressure (SBP) from baseline to the end of Study Week 8.
Secondary endpoints of this study were: • (a) Change in 24-hour ambulatory blood pressure monitoring (ABPM) parameters (systolic and diastolic) from baseline to the end of Study Week 7. • (b) Change in office-measured SBP from baseline to the end of Study Weeks 1, 2, 3, 4, 5, 6, and 7. • (c) Change in office-measured diastolic blood pressure (DBP) from baseline to the end of Study Weeks 1, 2, 3, 4, 5, 6, 7, and 8. • (d) Proportion of subjects who achieve office-measured BP of ≤130/80 mm Hg by the end of Study Week 8.

[1] = 12.5 mg QD, Systolic Blood Pressure Tertile at Baseline Low
[2] = 12.5 mg QD, Systolic Blood Pressure Tertile at Baseline Middle
[3] = 12.5 mg QD, Thiazide Diuretic Use at Baseline No
[4] = 12.5 mg QD, Thiazide Diuretic Use at Baseline Yes

## CC(=O)N[C@H]1CC[C@H](NC(=O)CN2CCN(c3nncc(-c4ccc(C)cc4)n3)CC2)CC1 [Compound A HBr]
12.5 mg QD, Systolic Blood Pressure Tertile at Baseline High
  Mean (SD) Change from Baseline at Week 8 in Automated Office-Measured Systolic Blood Pressure: −10.83 (23.91) mmHg
[1]
  Mean (SD) Automated Office-Measured Systolic Blood Pressure at Wk 8: 131.17 (12.77) mmHg
  Mean (SD) Change from Baseline at Week 8 in Automated Office-Measured Systolic Blood Pressure: −3.75 (13.24) mmHg
[2]
  Mean (SD) Automated Office-Measured Systolic Blood Pressure at Wk 8: 143.33 (22.23) mmHg
  Mean (SD) Change from Baseline at Week 8 in Automated Office-Measured Systolic Blood Pressure: −1.17 (21.80) mmHg
[3]
  Automated Office-Measured Diastolic Blood Pressure, Week 8, Mean (SD): 88.11 (21.40) mmHg
  Mean (SD) Automated Office-Measured Systolic Blood Pressure at Wk 8: 149.11 (26.02) mmHg
  Mean (SD) Change from Baseline at Week 8 in Automated Office-Measured Diastolic Blood Pressure: 1.56 (17.70) mmHg
  Mean (SD) Change from Baseline at Week 8 in Automated Office-Measured Systolic Blood Pressure: −5.83 (25.10) mmHg
[4]
  Automated Office-Measured Diastolic Blood Pressure, Week 8, Mean (SD): 74.78 (8.58) mmHg
  Mean (SD) Automated Office-Measured Systolic Blood Pressure at Wk 8: 132.44 (14.02) mmHg
  Mean (SD) Change from Baseline at Week 8 in Automated Office-Measured Diastolic Blood Pressure: −5.11 (6.26) mmHg
  Mean (SD) Change from Baseline at Week 8 in Automated Office-Measured Systolic Blood Pressure: −7.89 (14.31) mmHg
25 mg BID, ACEi/ARB No
  Mean (SD) Automated Office-Measured Systolic Blood Pressure at Wk 8: 123.67 (28.36) mmHg
  Mean (SD) Change from Baseline at Week 8 in Automated Office-Measured Systolic Blood Pressure: −19.17 (12.25) mmHg
25 mg BID, ACEi/ARB Yes
  Mean (SD) Automated Office-Measured Systolic Blood Pressure at Wk 8: 132.20 (15.32) mmHg
  Mean (SD) Change from Baseline at Week 8 in Automated Office-Measured Systolic Blood Pressure: −9.04 (14.04) mmHg
25 mg BID, ACEi/ARBs No
  Mean (SD) Automated Office-Measured Diastolic Blood Pressure at Wk 8: 68.67 (8.33) mmHg
  Mean (SD) Change from Baseline at Week 8 in Automated Office-Measured Diastolic Blood Pressure: −10.33 (13.25) mmHg
25 mg BID, ACEi/ARBs Yes
  Mean (SD) Automated Office-Measured Diastolic Blood Pressure at Wk 8: 76.24 (13.40) mmHg
  Mean (SD) Change from Baseline at Week 8 in Automated Office-Measured Diastolic Blood Pressure: −2.88 (11.56) mmHg
25 mg BID, AHTs 2
  Mean (SD) Automated Office-Measured Diastolic Blood Pressure at Wk 8: 79.31 (15.91) mmHg
  Mean (SD) Automated Office-Measured Systolic Blood Pressure at Wk 8: 136.92 (18.45) mmHg
  Mean (SD) Change from Baseline at Week 8 in Automated Office-Measured Diastolic Blood Pressure: −2.12 (15.46) mmHg
  Mean (SD) Change from Baseline at Week 8 in Automated Office-Measured Systolic Blood Pressure: −6.15 (13.68) mmHg
25 mg BID, AHTs ≥3
  Mean (SD) Automated Office-Measured Diastolic Blood Pressure at Wk 8: 72.07 (9.26) mmHg
  Mean (SD) Automated Office-Measured Systolic Blood Pressure at Wk 8: 126.40 (13.57) mmHg
  Mean (SD) Change from Baseline at Week 8 in Automated Office-Measured Diastolic Blood Pressure: −5.03 (7.45) mmHg
  Mean (SD) Change from Baseline at Week 8 in Automated Office-Measured Systolic Blood Pressure: −13.57 (13.83) mmHg
25 mg BID, Age 65-79 yr
  Mean (SD) Automated Office-Measured Diastolic Blood Pressure at Wk 8: 74.71 (17.26) mmHg
  Mean (SD) Automated Office-Measured Systolic Blood Pressure at Wk 8: 133.86 (19.37) mmHg
  Mean (SD) Change from Baseline at Week 8 in Automated Office-Measured Diastolic Blood Pressure: −0.46 (14.22) mmHg
  Mean (SD) Change from Baseline at Week 8 in Automated Office-Measured Systolic Blood Pressure: −7.82 (14.88) mmHg
25 mg BID, Age <65 yr
  Mean (SD) Automated Office-Measured Diastolic Blood Pressure at Wk 8: 76.54 (7.57) mmHg
  Mean (SD) Automated Office-Measured Systolic Blood Pressure at Wk 8: 127.38 (13.07) mmHg
  Mean (SD) Change from Baseline at Week 8 in Automated Office-Measured Diastolic Blood Pressure: −6.69 (8.06) mmHg
  Mean (SD) Change from Baseline at Week 8 in Automated Office-Measured Systolic Blood Pressure: −12.31 (13.78) mmHg
25 mg BID, Age ≥80 yr
  Mean (SD) Automated Office-Measured Diastolic Blood Pressure at Wk 8: 71.00 (NE) mmHg
  Mean (SD) Automated Office-Measured Systolic Blood Pressure at Wk 8: 146.00 (NE) mmHg
  Mean (SD) Change from Baseline at Week 8 in Automated Office-Measured Diastolic Blood Pressure: −9.50 (NE) mmHg
  Mean (SD) Change from Baseline at Week 8 in Automated Office-Measured Systolic Blood Pressure: −14.00 (NE) mmHg
25 mg BID, BMI 25−30 kg/m^2
  Mean (SD) Automated Office-Measured Diastolic Blood Pressure at Wk 8: 78.89 (20.58) mmHg
  Mean (SD) Change from Baseline at Week 8 in Automated Office-Measured Diastolic Blood Pressure: 1.11 (16.18) mmHg
25 mg BID, BMI <25 kg/m^2
  Mean (SD) Automated Office-Measured Diastolic Blood Pressure at Wk 8: 69.25 (9.50) mmHg
  Mean (SD) Change from Baseline at Week 8 in Automated Office-Measured Diastolic Blood Pressure: −8.25 (7.63) mmHg
25 mg BID, BMI >30 kg/m^2
  Mean (SD) Automated Office-Measured Diastolic Blood Pressure at Wk 8: 75.00 (6.97) mmHg
